Laboratory results from PubChem BioAssay (NCI).
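Values below derive from 48-hour exposures of cells grown in 96-well plates, with endpoints linearly interpolated between the two concentrations bracketing the appropriate inhibition level. TGI marks complete inhibition of growth.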

Key:
Assay in all cases: NCI anticancer screen, dose series, 48 h
PC-3 prostate = test system: PC-3 prostate
K-562 leukemia = test system: K-562 leukemia
NCI/ADR-RES ovarian = test system: NCI/ADR-RES ovarian
SW-620 colon = test system: SW-620 colon
SN12C renal = test system: SN12C renal
SNB-75 CNS = test system: SNB-75 CNS
A498 renal = test system: A498 renal
SK-OV-3 ovarian = test system: SK-OV-3 ovarian
HCT-116 colon = test system: HCT-116 colon
NCI-H460 lung = test system: NCI-H460 lung
OVCAR-4 ovarian = test system: OVCAR-4 ovarian
SF-268 CNS = test system: SF-268 CNS
786-0 renal = test system: 786-0 renal
CAKI-1 renal = test system: CAKI-1 renal
RXF 393 renal = test system: RXF 393 renal
CCRF-CEM leukemia = test system: CCRF-CEM leukemia
HCT-15 colon = test system: HCT-15 colon
ACHN renal = test system: ACHN renal
KM12 colon = test system: KM12 colon
HCC-2998 colon = test system: HCC-2998 colon
OVCAR-3 ovarian = test system: OVCAR-3 ovarian
SNB-19 CNS = test system: SNB-19 CNS
MOLT-4 leukemia = test system: MOLT-4 leukemia
M14 melanoma = test system: M14 melanoma
HOP-62 NSCLC = test system: HOP-62 NSCLC
LOX IMVI melanoma = test system: LOX IMVI melanoma
NCI-H23 lung = test system: NCI-H23 lung
SF-539 CNS = test system: SF-539 CNS
HS 578T breast = test system: HS 578T breast
SK-MEL-2 melanoma = test system: SK-MEL-2 melanoma
DU-145 prostate = test system: DU-145 prostate
TK-10 renal = test system: TK-10 renal
HOP-92 NSCLC = test system: HOP-92 NSCLC
MDA-MB-231 breast = test system: MDA-MB-231 breast
EKVX NSCLC = test system: EKVX NSCLC
SF-295 CNS = test system: SF-295 CNS
HL-60(TB) leukemia = test system: HL-60(TB) leukemia
RPMI-8226 leukemia = test system: RPMI-8226 leukemia
T-47D breast = test system: T-47D breast
UACC-257 melanoma = test system: UACC-257 melanoma
NCI-H522 lung = test system: NCI-H522 lung
MDA-MB-435 = test system: MDA-MB-435
COLO 205 colon = test system: COLO 205 colon
U251 CNS = test system: U251 CNS
MALME-3M melanoma = test system: MALME-3M melanoma
OVCAR-8 ovarian = test system: OVCAR-8 ovarian
BT-549 breast = test system: BT-549 breast
OVCAR-5 ovarian = test system: OVCAR-5 ovarian
UACC-62 melanoma = test system: UACC-62 melanoma
IGROV1 ovarian = test system: IGROV1 ovarian
MCF7 breast = test system: MCF7 breast
NCI-H226 lung = test system: NCI-H226 lung
MDA-N = test system: MDA-N
HT29 colon = test system: HT29 colon
A549 NSCLC = test system: A549 NSCLC
SK-MEL-28 melanoma = test system: SK-MEL-28 melanoma
SR leukemia = test system: SR leukemia
SK-MEL-5 melanoma = test system: SK-MEL-5 melanoma
UO-31 renal = test system: UO-31 renal

O=c1cc(N2CCCC2)[nH]c(=O)n1-c1cccc(Cl)c1
TGI (PC-3 prostate): > 100 µM
TGI (K-562 leukemia): > 100 µM
TGI (NCI/ADR-RES ovarian): > 100 µM
TGI (SW-620 colon): > 100 µM
TGI (SN12C renal): > 100 µM
TGI (SNB-75 CNS): > 100 µM
TGI (A498 renal): > 100 µM
TGI (SK-OV-3 ovarian): > 100 µM
TGI (HCT-116 colon): > 100 µM
TGI (NCI-H460 lung): > 100 µM
TGI (OVCAR-4 ovarian): > 100 µM
TGI (SF-268 CNS): > 100 µM
TGI (786-0 renal): > 100 µM
TGI (CAKI-1 renal): > 100 µM
TGI (RXF 393 renal): > 100 µM
TGI (CCRF-CEM leukemia): > 100 µM
TGI (HCT-15 colon): > 100 µM
TGI (ACHN renal): > 100 µM
TGI (KM12 colon): > 100 µM
TGI (HCC-2998 colon): > 100 µM
TGI (OVCAR-3 ovarian): > 100 µM
TGI (SNB-19 CNS): > 100 µM
TGI (MOLT-4 leukemia): > 100 µM
TGI (M14 melanoma): > 100 µM
TGI (HOP-62 NSCLC): > 100 µM
TGI (LOX IMVI melanoma): > 100 µM
TGI (NCI-H23 lung): > 100 µM
TGI (SF-539 CNS): > 100 µM
TGI (HS 578T breast): > 100 µM
TGI (SK-MEL-2 melanoma): > 100 µM
TGI (DU-145 prostate): > 100 µM
TGI (TK-10 renal): > 100 µM
TGI (HOP-92 NSCLC): > 100 µM
TGI (MDA-MB-231 breast): > 100 µM
TGI (EKVX NSCLC): > 100 µM
TGI (SF-295 CNS): > 100 µM
TGI (HL-60(TB) leukemia): > 100 µM
TGI (RPMI-8226 leukemia): > 100 µM
TGI (T-47D breast): > 100 µM
TGI (UACC-257 melanoma): > 100 µM
TGI (NCI-H522 lung): > 100 µM
TGI (MDA-MB-435): > 100 µM
TGI (COLO 205 colon): > 100 µM
TGI (U251 CNS): > 100 µM
TGI (MALME-3M melanoma): > 100 µM
TGI (OVCAR-8 ovarian): > 100 µM
TGI (BT-549 breast): > 100 µM
TGI (OVCAR-5 ovarian): > 100 µM
TGI (UACC-62 melanoma): > 100 µM
TGI (IGROV1 ovarian): > 100 µM
TGI (MCF7 breast): > 100 µM
TGI (NCI-H226 lung): > 100 µM
TGI (MDA-N): > 100 µM
TGI (HT29 colon): > 100 µM

CC1CCCCNC1=S (centres undefined)
TGI (PC-3 prostate): > 10 µM
TGI (K-562 leukemia): > 10 µM
TGI (SW-620 colon): > 10 µM
TGI (SN12C renal): > 10 µM
TGI (SNB-75 CNS): > 10 µM
TGI (A498 renal): > 10 µM
TGI (SK-OV-3 ovarian): > 10 µM
TGI (NCI-H460 lung): > 10 µM
TGI (SF-268 CNS): > 10 µM
TGI (RXF 393 renal): > 10 µM
TGI (CCRF-CEM leukemia): > 10 µM
TGI (HCT-15 colon): > 10 µM
TGI (ACHN renal): > 10 µM
TGI (KM12 colon): > 10 µM
TGI (OVCAR-3 ovarian): > 10 µM
TGI (SNB-19 CNS): > 10 µM
TGI (MOLT-4 leukemia): > 10 µM
TGI (M14 melanoma): > 10 µM
TGI (HOP-62 NSCLC): > 10 µM
TGI (LOX IMVI melanoma): > 10 µM
TGI (NCI-H23 lung): > 10 µM
TGI (SF-539 CNS): > 10 µM
TGI (A549 NSCLC): > 10 µM
TGI (HS 578T breast): > 10 µM
TGI (SK-MEL-2 melanoma): > 10 µM
TGI (DU-145 prostate): > 10 µM
TGI (TK-10 renal): > 10 µM
TGI (HOP-92 NSCLC): > 10 µM
TGI (MDA-MB-231 breast): > 10 µM
TGI (SK-MEL-28 melanoma): > 10 µM
TGI (EKVX NSCLC): > 10 µM
TGI (SF-295 CNS): > 10 µM
TGI (HL-60(TB) leukemia): > 10 µM
TGI (T-47D breast): > 10 µM
TGI (SR leukemia): > 10 µM
TGI (UACC-257 melanoma): > 10 µM
TGI (MDA-MB-435): > 10 µM
TGI (U251 CNS): > 10 µM
TGI (MALME-3M melanoma): > 10 µM
TGI (OVCAR-8 ovarian): > 10 µM
TGI (BT-549 breast): > 10 µM
TGI (OVCAR-5 ovarian): > 10 µM
TGI (SK-MEL-5 melanoma): > 10 µM
TGI (UACC-62 melanoma): > 10 µM
TGI (IGROV1 ovarian): > 10 µM
TGI (MCF7 breast): > 10 µM
TGI (NCI-H226 lung): > 10 µM
TGI (UO-31 renal): > 10 µM
TGI (MDA-N): > 10 µM
TGI (HT29 colon): > 10 µM
